Assay [1] has as its system bacteria. On the set-up: method as in PMID 26013823. To be noted: cited from earlier work.
Assay [2] relates to ZIKV. Nature of the assay: Antiviral activity of Hc-CATH against ZIKV in vitro (peptide present during and after infection). Format: cell-based, ZIKV strain PRVABC59. How it is done: Figure 1 Hc-CATH inhibits ZIKV infection in vitro. A, schematic diagram of B–H. B–H, protective effect of Hc-CATH on ZIKV infection in vitro. Vero cells were seeded in 24-well plates (5 × 10^4 cells/well). Cells were infected with ZIKV (MOI = 1), and Hc-CATH (1.25, 2.5, and 5 μM), AC5 (2.5 and 5 μM), LL-37 (2.5 μM), or same volume of PBS (peptide solvent) was added and incubated at 37 °C for 2 h. Then the cells were washed with PBS and transferred with fresh DMEM containing 2% FBS and the same concentration of peptides. After culture at 37 °C for 48 h, image of ZIKV-caused cytopathic effect was taken (B, the scale bar represents 200 μm), the percentage of ZIKV-caused cytopathic effect was quantified by CCK-8 (C), intracellular ZIKV RNA (D), NS3 protein (E, upper panel: immunoblots, lower panel: ratios analyzed by ImageJ), E protein (F, the scale bar represents 50 μm), and extracellular ZIKV titer (G and H) was tested by qPCR, Western blot, immunofluorescence staining, and plaque-forming assay, respectively. The raw data files used in the creation of G are presented in Fig. S3. ∗p < 0.05, ∗∗p < 0.01, ∗∗∗p < 0.001, ns, not significant.
Vero cells were seeded in 24-well plates (5 × 10^4 cells/well). After cells were adhered to plates, cells were incubated with ZIKV (multiplicity of infection [MOI] = 1) in the presence of noncytotoxic concentration of Hc-CATH, AC5 (positive control), LL-37 (positive control), or PBS (solvent of peptide). After incubation at 37 °C for 2 h, the culture media were removed, cells were washed with PBS and transferred with fresh culture media containing 2% FBS, and Hc-CATH, AC5, LL-37, or PBS was supplemented to each well. After incubation at 37 °C for 48 h, cytopathic effect was observed by microscopy, and Cell Counting Kit-8 was applied to determine the percent of cytopathic effect. The percent of cytopathic effect was calculated as (Asham –Atreatment)/Asham × 100 (where Asham represents the absorbance of uninfected cells, Atreatment represents the absorbance of PBS- or peptide-treated cells post ZIKV infection). The intracellular ZIKV RNA, NS3 protein, E protein, and extracellular ZIKV titer were tested by qPCR, WB, IF, and plaque-forming assay, respectively ([28]).

Assay [3] relates to ZIKV. As to the kind of experiment: ZIKV replication stage, U251 cells (peptide added after infection). Format: cell-based, ZIKV strain PRVABC59. As to conditions: 2.5 μM after ZIKV infection, 48 h; NS3 Western blot. How it is done:
B–I, Vero (B–G), A549 (H), or U251 (I) cells were incubated with ZIKV (MOI = 1) at 37 °C for 2 h, washed with PBS, and transferred with fresh DMEM containing 2% FBS and Hc-CATH (2.5 μM), AC5 (2.5 μM), LL-37 (2.5 μM), or PBS (solvent of peptide). After culture at 37 °C for 48 h, intracellular ZIKV RNA (B), NS3 protein (C, D, H, and I), E protein level (E, the scale bar represents 50 μm), and extracellular ZIKV titer (F and G) were detected by qPCR, Western blot, immunofluorescence staining, and plaque-forming assay, respectively.
Vero cells were incubated with ZIKV (MOI = 1) at 37 °C for 2 h, washed three times with PBS, and transferred with fresh DMEM containing 2% FBS and Hc-CATH (2.5 μM), AC5 (2.5 μM), LL-37 (2.5 μM), or PBS. After culture at 37 °C for 48 h, intracellular ZIKV RNA, NS3 protein, E protein, and extracellular ZIKV titer were detected by qPCR, WB, IF, and plaque-forming assay, respectively. The effect of Hc-CATH on ZIKV replication stage was further tested in A549 and U251 cells under the same condition, and intracellular ZIKV NS3 protein was detected by WB.

Assay [4] has as its system COX-2. Nature of the assay: Enzymatic activity of COX-2 (inhibitor screening kit). As to conditions: 10 μM, incubated with COX-2 at 37 °C for 10 min. In kind it is biochemical. On the procedure:
Figure 6 Hc-CATH downregulates AXL via inhibiting COX-2/PGE2/AC/PKA pathway.A, effect of Hc-CATH on COX-2 protein level. A549 cells were incubated with Hc-CATH (1.25, 2.5, or 5 μM) or PBS (solvent of Hc-CATH) at 37 °C for 24 h, COX-2 protein level was examined by Western blot (upper panel) and analyzed by ImageJ (lower panel). B, effect of Hc-CATH on the enzymatic activity of COX-2. Hc-CATH (1.25, 2.5, 5, and 10 μM) or PBS was incubated with COX-2. After incubation at 37 °C for 10 min, the enzymatic activity of COX-2 was detected by enzyme activity inhibitor screening kit. Celecoxib (COX-2 inhibitor, 100 nM) was used as positive control. C, effect of Hc-CATH on PGE2 production. A549 cells were incubated with Hc-CATH (5 μM) at 37 °C. After incubation for 24 h, the level of PGE2 in the cell supernatant was detected by ELISA. D and E, effect of AC (D) and PKA (E) on Hc-CATH-induced AXL downregulation. […] After incubation for 24 h, AXL protein level was examined by Western blot (upper panel of D and E) and analyzed by ImageJ (lower panel of D and E). ns, not significant, ∗∗p < 0.01, and ∗∗∗p < 0.001.
The effect of Hc-CATH on the enzymatic activity of COX-2 was detected by enzyme activity inhibitor screening kit. […] After incubation at 37 °C for 10 min, the enzymatic activity of COX-2 was detected by the kit. […]

The values below come from PMC9530963, “A cathelicidin antimicrobial peptide from Hydrophis cyanocinctus inhibits Zika virus infection by downregulating expression of a viral entry factor” (The Journal of Biological Chemistry, 2022).

For “KFFKRLLKSVRRAVKKFRKKPRLIGLSTLL [Hc-CATH, cathelicidin antimicrobial peptide identified from the sea snake Hydrophis cyanocinctus]”, the antibacterial spectrum entry in assay [1] is given as “broad antibacterial spectrum”. Further, in assay [2] (5 μM, Vero cells, ZIKV MOI = 1, 48 h, Western blot, ImageJ), the “reduction of NS3 protein” value is recorded as approximately 67.4%. In addition, in assay [2] (5 μM, Vero cells, ZIKV MOI = 1, 48 h, plaque-forming assay), the “reduction of extracellular ZIKV particles” value is approximately 71.6%. In addition, in assay [2] (5 μM, Vero cells, ZIKV MOI = 1, 48 h, qPCR), the “reduction of intracellular ZIKV RNA” value is reported as approximately 52.7%. Further, the “reduction of ZIKV-caused cytopathic effect” value in assay [2] (5 μM, Vero cells, ZIKV MOI = 1, peptide during 2 h infection and 48 h culture, CCK-8) is listed as “about 70.3%”. In addition, the “anti-ZIKV efficacy in vitro compared with positive peptides” value in assay [2] (Vero cells (Fig. 1)) was “weaker than that of AC5 and LL-37”. For the same sequence, the “ZIKV infection in U251 cells, peptide added after infection” value in assay [3] is recorded as “did not inhibit ZIKV infection”. Also, the “inhibitory rate against COX-2 activity” value in assay [4] is recorded as “about 80%”.
